Experimental data reported in US6875891B2, “Process for preparing highly water soluble double salts of hydroxycitric acid particularly alkali and alkaline earth metal double salts” (Laila Impex, priority 2003, dated 2005).

What was measured:
[1] = background statement; cited from earlier work
[2] = equilibration between free acid form and lactone form when dissolved in water; assay type: physicochemical
[3] = background statement on known salts; cited from earlier work

For O=C([O-])C[C@@](O)(C(=O)[O-])[C@H](O)C(=O)[O-].[K+].[K+].[K+] [tripotassium salt], the hygroscopicity [1] is listed as “highly hygroscopic”.

In the case of “calcium/potassium double salt of hydroxycitric acid [Ca/K double salt]”, the “equilibration between free form and lactone form of hydroxycitric acid” value [2] is reported as “does not equilibrate between the free form and the lactone form”.

For O=C([O-])C[C@@](O)(C(=O)[O-])[C@H](O)C(=O)[O-].O=C([O-])C[C@@](O)(C(=O)[O-])[C@H](O)C(=O)[O-].[Ca+2].[Ca+2].[Ca+2] [calcium salt, calcium salt of hydroxycitric acid], the solubility in water [3] is given as “poorly soluble in water”.
